Measurements as given in ChEMBL document CHEMBL1201862, “PubChem BioAssay data set” (2004).
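Method: 48-hour compound exposure of cells in 96-well plates, five concentrations, linear interpolation of endpoints. GI50 = concentration required for 50% inhibition of growth.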 Calls of active or inactive are those of the source. Cut-off read from the data, not from the text of the source: active = GI50 up to about 1.1 µM and inactive = higher.

How the values were obtained:
Assay in all cases: NCI tumour cell line growth inhibition, 48 h
U-251 = tested on: U-251
NCI-H522 = tested on: NCI-H522
HCT-116 = tested on: HCT-116
SNB-19 = tested on: SNB-19
SN12C = tested on: SN12C
Malme-3M = tested on: Malme-3M
SR = tested on: SR
NCI-H460 = tested on: NCI-H460
SK-MEL-5 = tested on: SK-MEL-5
HCT-15 = tested on: HCT-15
NCI-H23 = tested on: NCI-H23
NCI-H226 = tested on: NCI-H226
SK-OV-3 = tested on: SK-OV-3
OVCAR-8 = tested on: OVCAR-8
SF-539 = tested on: SF-539
786-0 = tested on: 786-0
ACHN = tested on: ACHN
LOX IMVI = tested on: LOX IMVI
CCRF-CEM = tested on: CCRF-CEM
CAKI-1 = tested on: CAKI-1

Row | SMILES | GI50 (U-251) | GI50 (NCI-H522) | GI50 (HCT-116) | GI50 (SNB-19) | GI50 (SN12C) | GI50 (Malme-3M) | GI50 (SR) | GI50 (NCI-H460) | GI50 (SK-MEL-5) | GI50 (HCT-15) | GI50 (NCI-H23) | GI50 (NCI-H226) | GI50 (SK-OV-3) | GI50 (OVCAR-8) | GI50 (SF-539) | GI50 (786-0) | GI50 (ACHN) | GI50 (LOX IMVI) | GI50 (CCRF-CEM) | GI50 (CAKI-1)
1 | CNc1ncnc2c1cnn2COCC(O)CO (configuration not stated) | > 100 µM (inactive) | > 100 µM (inactive) | > 100 µM (inactive) | > 100 µM (inactive) | > 100 µM (inactive) | > 100 µM (inactive) | > 100 µM (inactive) | > 100 µM (inactive) | > 100 µM (inactive) | > 100 µM | > 100 µM (inactive) | > 100 µM (inactive) | > 100 µM (inactive) | > 100 µM (inactive) | > 100 µM (inactive) | > 100 µM (inactive) | > 100 µM (inactive) | > 100 µM (inactive) | > 100 µM (inactive) | > 100 µM (inactive)
2 | CC(=O)C1(c2ccccc2)CCN(Cn2sc3nc(C)cc(C)c3c2=O)CC1 | 42.3 µM (inactive) | 12.4 µM (inactive) | 23.1 µM (inactive) | > 100 µM (inactive) | 21.4 µM (inactive) | 20.3 µM (inactive) | 32.1 µM (inactive) | 17.6 µM (inactive) | 30.1 µM (inactive) | 26.5 µM | 19.1 µM (inactive) | 97.5 µM (inactive) | 76.4 µM (inactive) | 27.4 µM (inactive) | 22.5 µM (inactive) | 16.9 µM (inactive) | 17.8 µM (inactive) | 23.8 µM (inactive) | 10.5 µM (inactive) | 35.9 µM (inactive)
3 | CCOC(=O)C1=C(OC(OCC)C(CC)[Se]c2ccccc2)CCC1 (configuration not stated) | 11.4 µM (inactive) | 15.6 µM (inactive) | 20.4 µM (inactive) | 42.2 µM (inactive) | 17.1 µM (inactive) | 4.58 µM (inactive) | 19.3 µM (inactive) | 39.7 µM (inactive) | 12.6 µM (inactive) | 14.7 µM | 12.5 µM (inactive) | 18.3 µM (inactive) | 92 µM (inactive) | 33.2 µM (inactive) | 19.8 µM (inactive) | 15.5 µM (inactive) | 32.2 µM (inactive) | 7.31 µM (inactive) | 11 µM (inactive) | 44.2 µM (inactive)
4 | Cc1cccc(C(=O)O)c1C(=O)c1cccc2ccccc12 | > 100 µM (inactive) | > 100 µM (inactive) | > 100 µM (inactive) | > 100 µM (inactive) | > 100 µM (inactive) | > 100 µM (inactive) | > 100 µM (inactive) | > 100 µM (inactive) | > 100 µM (inactive) | 37.7 µM | > 100 µM (inactive) | > 100 µM (inactive) | > 100 µM (inactive) | > 100 µM (inactive) |  | > 100 µM (inactive) | > 100 µM (inactive) | > 100 µM (inactive) | > 100 µM (inactive) | > 100 µM (inactive)
5 | CCCCCCCCOC(=O)C12Oc3ccc(-c4ccc5c(c4O)C(=O)C4=C(O)CC(C)C(O)C4(C(=O)OCCCCCCCC)O5)c(O)c3C(=O)C1=C(O)CC(C)C2O (configuration not stated) | 4.06 µM (inactive) | 8.36 µM (inactive) | 7.11 µM (inactive) | 8.85 µM (inactive) | 27.7 µM (inactive) | 32.4 µM (inactive) | 4.26 µM (inactive) | 4.66 µM (inactive) | 14.7 µM (inactive) | 25 µM | 10.2 µM (inactive) | 33.7 µM (inactive) | 18.7 µM (inactive) | 9.46 µM (inactive) | 4.21 µM (inactive) | 19.1 µM (inactive) | 5.61 µM (inactive) | 25.5 µM (inactive) | 2.05 µM (inactive) | 25.2 µM (inactive)
6 | CC(C)=CCN(N=O)c1ncnc2[nH]cnc12 |  | > 100 µM (inactive) | > 100 µM (inactive) | > 100 µM (inactive) | > 100 µM (inactive) | > 100 µM (inactive) | 75.3 µM (inactive) | > 100 µM (inactive) | > 100 µM (inactive) |  | > 100 µM (inactive) | > 100 µM (inactive) | > 100 µM (inactive) | > 100 µM (inactive) | > 100 µM (inactive) | > 100 µM (inactive) | > 100 µM (inactive) | 92.5 µM (inactive) | > 100 µM (inactive) | > 100 µM (inactive)
7 | c1cc(-c2ccc(-c3ccc(-c4ccc(-c5ccncc5)o4)cc3)o2)ccn1 | 17.5 µM (inactive) | 15.3 µM (inactive) | 16.1 µM (inactive) | 18.5 µM (inactive) | 22.4 µM (inactive) | 19.8 µM (inactive) | 24.1 µM (inactive) | 15.2 µM (inactive) | 13.2 µM (inactive) | 15.1 µM | 16.9 µM (inactive) | 27.4 µM (inactive) | 21.1 µM (inactive) | 16.8 µM (inactive) |  | 15.9 µM (inactive) | 24.6 µM (inactive) | 21.4 µM (inactive) | 5.68 µM (inactive) | 21.4 µM (inactive)
8 | O=[N+]([O-])c1ccc2c(c1)n1c(N3CCCC3)[n+]3ccccc3c1c1c3ccccn3c(N3CCCC3)[n+]21.[O-][Cl+3]([O-])([O-])[O-].[O-][Cl+3]([O-])([O-])[O-] | 36.7 µM (inactive) | 29 µM (inactive) | > 100 µM (inactive) | 45 µM (inactive) | 51.8 µM (inactive) | 68.9 µM (inactive) | > 100 µM (inactive) | > 100 µM (inactive) | > 100 µM (inactive) | > 100 µM | > 100 µM (inactive) | 44.3 µM (inactive) |  | > 100 µM (inactive) | 39.5 µM (inactive) | > 100 µM (inactive) | 10 µM (inactive) | > 100 µM (inactive) | 21.1 µM (inactive) | > 100 µM (inactive)
9 | COc1ccc2[nH]c3c(c2c1)CCc1c(OC)cccc1-3 | 28.8 µM (inactive) | 87.1 µM (inactive) | > 100 µM (inactive) | > 100 µM (inactive) | > 100 µM (inactive) | 75.2 µM (inactive) | > 100 µM (inactive) | > 100 µM (inactive) | > 100 µM (inactive) | > 100 µM | > 100 µM (inactive) | > 100 µM (inactive) | > 100 µM (inactive) | > 100 µM (inactive) |  | > 100 µM (inactive) | > 100 µM (inactive) | > 100 µM (inactive) | 52.2 µM (inactive) | > 100 µM (inactive)
10 | CCOc1ccc(N2C(=O)NC3(c4ccccc4)N(C)C(=O)N(C)C23c2ccccc2)cc1 (configuration not stated) | > 100 µM (inactive) | 33.9 µM (inactive) | 78 µM (inactive) | > 100 µM (inactive) | > 100 µM (inactive) | > 100 µM (inactive) | > 100 µM (inactive) |  | 68.9 µM (inactive) |  | > 100 µM (inactive) | 61 µM (inactive) | > 100 µM (inactive) | 61.1 µM (inactive) | > 100 µM (inactive) | > 100 µM (inactive) | > 100 µM (inactive) | > 100 µM (inactive) | > 100 µM (inactive) | > 100 µM (inactive)
11 | COc1ccc(N2C(=O)C3c4[nH]c5ccc(F)cc5c4C4CCC(c5ccccc5)CC4C3C2=O)cc1 (configuration not stated) | 9.98 µM (inactive) | 13 µM (inactive) | 20.7 µM (inactive) | 11.1 µM (inactive) | 26.2 µM (inactive) | 16.1 µM (inactive) | 6.93 µM (inactive) | 10 µM (inactive) | 21.6 µM (inactive) | 19.7 µM | 18.8 µM (inactive) | 54.8 µM (inactive) | 22.5 µM (inactive) | 17.8 µM (inactive) |  | 3.56 µM (inactive) | 20.3 µM (inactive) | 36.8 µM (inactive) | 2.26 µM (inactive) | 19.8 µM (inactive)
12 | Cc1cccc(/C=N/NC(=S)N2CCCC2)n1 | 0.366 µM (active) | 0.0458 µM (active) | 0.069 µM (active) | 2.82 µM (inactive) | 0.247 µM (active) | 0.0286 µM (active) | 0.0509 µM (active) | 0.337 µM (active) | 0.259 µM (active) | 0.138 µM | 0.215 µM (active) | 2.41 µM (inactive) |  | 0.324 µM (active) | 0.479 µM (active) | 0.199 µM (active) | 0.202 µM (active) | 0.267 µM (active) | < 0.01 µM (active) | 0.197 µM (active)
13 | [N-]=[N+]=CC(=O)OC1CCOCC1 | > 100 µM (inactive) | > 100 µM (inactive) | > 100 µM (inactive) | > 100 µM (inactive) | > 100 µM (inactive) | > 100 µM (inactive) | > 100 µM (inactive) | > 100 µM (inactive) | > 100 µM (inactive) | > 100 µM | > 100 µM (inactive) | > 100 µM (inactive) | > 100 µM (inactive) |  |  | > 100 µM (inactive) | > 100 µM (inactive) | > 100 µM (inactive) | > 100 µM (inactive) | > 100 µM (inactive)
14 | C[C@H]1CC[C@@]2(OC1)O[C@H]1C[C@H]3[C@@H]4CC[C@@H]5C[C@@H](OC6OC(CO)C(O)C(O)C6OC6OC(CO)C(O)C(O)C6O)CC[C@]5(C)[C@H]4CC[C@]3(C)[C@H]1[C@@H]2C (some centres not stated) | 2.26 µM (inactive) | 2.71 µM (inactive) | 2.01 µM (inactive) | 2.18 µM (inactive) | 2.07 µM (inactive) | 2.62 µM (inactive) | 2.07 µM (inactive) |  | 2.18 µM (inactive) | 1.99 µM | 2.31 µM (inactive) | 2.34 µM (inactive) | 1.69 µM (inactive) | 2.45 µM (inactive) | 2.03 µM (inactive) | 2.01 µM (inactive) | 2.11 µM (inactive) | 1.99 µM (inactive) | 1.58 µM (inactive) | 1.8 µM (inactive)
